According to PubChem BioAssay AID720727 (Broad Institute, 2013):
Activity calls are given as the source filed them.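 Rule for the calls: active = compound whose rising-signal curve crosses activity 40 at or below its top valid dose; inconclusive = flat curve holding activity 30 to 70, or poor fit; inactive = the rest.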

What follows are molecules tested on Huh7 miR-21 level, qRT-PCR, 48 h (assay: effect on endogenous miR-21 levels, dose response, selectivity assay for miR-122 activator project, cell-based, Huh7, qRT-PCR, dry powder (AID 720727)).
With `C[C@H]1CN([C@@H](C)CO)C(=O)c2cc(-c3ccc(C#N)cc3)cnc2O[C@H]1CN(C)C(=O)c1ccccc1` the AC40 was 30.6 µM. With `CNC[C@@H]1Oc2cc(C#CC3CCCCC3)ccc2S(=O)(=O)N([C@@H](C)CO)C[C@@H]1C` the AC40 was 29.2 µM. `CCOC(=O)N1CCC(NC(=O)c2ccc3c(c2)sc2nc(-c4ccccc4)cn23)CC1` was tested, and the AC40 was 17.5 µM. Work on `COCC(=O)N(C)C[C@@H]1Oc2ncc(-c3ccc(C#N)cc3)cc2C(=O)N([C@@H](C)CO)C[C@@H]1C` yielded an AC40 of 18.4 µM. `Cc1cc(C(C)(C)C)cc(S(=O)(=O)NCCc2ccncc2)c1C` was tested, and the AC40 was 33.5 µM. Work on `COCC(=O)N(C)C[C@H]1Oc2cc(C#Cc3cccnc3)ccc2S(=O)(=O)N([C@H](C)CO)C[C@H]1C` yielded an AC40 of 4.22 µM. `O=C(CN=C1NS(=O)(=O)c2ccccc21)Nc1ccccc1N1CCCCCC1` gave an AC40 of 28.4 µM. With `CCn1cc(C(=O)O)c(=O)c2cc(F)c(N3CCNCC3)nc21` the AC40 was > 35 µM (inactive). Molecule `CN(C)CCCOc1nn(Cc2ccccc2)c2ccccc12` has an AC40 of 11.4 µM. With `CN(CC(=O)Nc1cccc(Cl)c1)S(=O)(=O)c1ccc2c(c1)n(C)c(=O)c(=O)n2C` the AC40 was 29.8 µM. For `COCC(=O)N(C)C[C@H]1Oc2cc(-c3ccccc3F)ccc2S(=O)(=O)N([C@H](C)CO)C[C@H]1C`, the AC40 was 18.8 µM. `CN1C(=O)c2cc(NC(=O)c3cccc(F)c3)ccc2OC[C@H]2O[C@@H](CC(=O)O)CC[C@H]21` gave an AC40 of 11.7 µM. Work on `Cc1cccc(NC(=O)Nc2ccc3c(c2)C(=O)N(C)[C@@H]2CC[C@H](CC(=O)NCc4ccccc4Cl)O[C@H]2CO3)c1` yielded an AC40 of 17.9 µM. `COc1ccc(S(=O)(=O)N(C)C[C@@H]2Oc3ncc(/C=C/c4ccccc4)cc3C(=O)N([C@@H](C)CO)C[C@@H]2C)cc1` showed an AC40 of 14.9 µM. Work on `CN1C(=O)c2cc(NC(=O)c3cccc(F)c3)ccc2OC[C@H]2O[C@@H](CC(=O)O)CC[C@@H]21` yielded an AC40 of 32.5 µM.
